The values that follow come from article PMC7175131, “Synthesis, In Vitro Evaluation and Molecular Docking of the 5-Acetyl-2-aryl-6-hydroxybenzo[b]furans against Multiple Targets Linked to Type 2 Diabetes” (Biomolecules, 2020).

Where “and” joins values, the source holds several entries; their conditions need not be identical. Identical values can stand only once. Like-named read-outs stand apart in the source and are kept apart here.

A short description of data set [1]: DPPH radical scavenging assay. The conditions noted are these: DPPH 0.3 mM in methanol, 45 min in the dark, 512 nm. How it is done: Antioxidant activities of compounds 2a–h against ascorbic acid (Sigma Aldrich, Saint Louis, Missouri, USA) as a positive control were evaluated using 2,2-diphenyl-1-picrylhydrazyl (DPPH) radical scavenging assay following a reported method by Zhu et al.. Triplicate solutions of the test compounds and the control in methanol (concentrations ranging from 0 µM to 50 µM) were treated with a solution of DPPH (0.3 mM) in methanol. The mixtures were incubated in the dark for 45 min and the absorbances were recorded at the wavelength of 512 nm using Varioskan flash microplate spectrophotometer reader. The inhibition was calculated in terms of percentage using the formula below, DPPH radical scavenged (%)=AbC − AbS/AbC×100, where AbC is absorbance of control and AbS the absorbance of the test sample. A graph of percentage inhibition of free radical activity was plotted against concentration of the sample.
(The DPPH test is a chemical assay of radical scavenging.)

Data set [2] concerns the target T1, cyclooxygenase-2 (COX-2) (Homo sapiens, UniProt P35354).
T1 sequence (P35354 18-604): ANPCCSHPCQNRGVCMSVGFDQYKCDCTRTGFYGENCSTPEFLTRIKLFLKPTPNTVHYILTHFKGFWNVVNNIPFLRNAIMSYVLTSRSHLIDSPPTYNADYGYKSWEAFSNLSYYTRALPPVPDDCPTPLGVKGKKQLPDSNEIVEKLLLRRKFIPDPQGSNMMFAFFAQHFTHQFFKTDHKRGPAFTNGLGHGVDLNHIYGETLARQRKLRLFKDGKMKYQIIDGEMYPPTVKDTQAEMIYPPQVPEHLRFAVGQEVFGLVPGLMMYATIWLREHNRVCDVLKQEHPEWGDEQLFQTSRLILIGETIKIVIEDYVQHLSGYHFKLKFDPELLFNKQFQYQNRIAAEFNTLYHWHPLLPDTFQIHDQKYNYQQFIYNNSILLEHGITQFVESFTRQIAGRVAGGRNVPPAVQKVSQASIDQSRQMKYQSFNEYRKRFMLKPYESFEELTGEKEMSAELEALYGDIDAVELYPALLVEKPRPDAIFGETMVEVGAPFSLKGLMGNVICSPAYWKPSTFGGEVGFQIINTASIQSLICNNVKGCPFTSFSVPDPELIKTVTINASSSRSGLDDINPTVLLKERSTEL
In words: COX-2 inhibitor screening kit assay. The conditions noted are these: COX-2 IC50, means from duplicate runs.
Description: The absorbance was measured using a Varioskan flash microplate spectrophotometer and the IC50 values were calculated with the aid of Origin Pro 9.0.

Data set [3] addresses T2, α-Glucosidase type 1 from baker's yeast (Saccharomyces cerevisiae, UniProt P53341).
T2 construct: purchased Sigma Aldrich (Pty) Ltd
In words: biochemical. The format is biochemical. How it is done:
The IC50 values of these compounds were calculated through the nonlinear regression analysis using Origin Pro 9.0 (OriginLab Corporation, Northampton, MA, USA) and are expressed as the mean standard deviation (SD) of three distinct experiments.

For data set [4], the target named is T3, human recombinant β-secretase (Homo sapiens, UniProt P56817).
T3 construct: purchased Pan Vera / Thermo Fisher Scientific Corporation; host or cells: baculovirus expression
T3 sequence (P56817 46-501): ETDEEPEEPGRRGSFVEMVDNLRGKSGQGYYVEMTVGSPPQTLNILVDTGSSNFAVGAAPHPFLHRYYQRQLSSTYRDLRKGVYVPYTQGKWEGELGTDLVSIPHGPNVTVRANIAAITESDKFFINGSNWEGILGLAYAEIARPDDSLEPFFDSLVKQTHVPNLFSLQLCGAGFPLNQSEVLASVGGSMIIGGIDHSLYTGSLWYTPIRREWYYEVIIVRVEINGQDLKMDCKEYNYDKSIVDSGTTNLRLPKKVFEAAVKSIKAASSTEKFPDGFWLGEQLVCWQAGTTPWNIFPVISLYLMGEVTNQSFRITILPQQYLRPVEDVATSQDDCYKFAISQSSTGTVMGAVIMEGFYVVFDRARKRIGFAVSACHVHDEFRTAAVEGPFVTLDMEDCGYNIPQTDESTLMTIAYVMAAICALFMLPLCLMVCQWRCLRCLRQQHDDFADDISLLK
In words: β-secretase (BACE-1) FRET enzyme assay. In kind it is biochemical. Conditions: for IC50: FRET, sodium acetate pH 4.5, 60 min, triplicate. How it is done: The assays were conducted in triplicates. […] The percentage inhibition was calculated using the following equation: Inhibition (%)=1–(S –S0)/(C –C0) ×100, where C is the fluorescence of control (enzyme, assay buffer and substrate) after 60 min of incubation, C0 is the fluorescence of control at time 0, S is the fluorescence of tested samples (enzyme, sample solution and substrate) after 60 min. of incubation and S0 the fluorescence of the tested samples at time 0. The IC50 values were calculated with Origin Pro 9.0. (OriginLab Corporation).

Data set [5] concerns the target T4, PTP1B (Homo sapiens, UniProt P18031).
T4 construct: purchased Sigma Aldrich, Modderfontein, South Africa
T4 sequence (P18031 1-435): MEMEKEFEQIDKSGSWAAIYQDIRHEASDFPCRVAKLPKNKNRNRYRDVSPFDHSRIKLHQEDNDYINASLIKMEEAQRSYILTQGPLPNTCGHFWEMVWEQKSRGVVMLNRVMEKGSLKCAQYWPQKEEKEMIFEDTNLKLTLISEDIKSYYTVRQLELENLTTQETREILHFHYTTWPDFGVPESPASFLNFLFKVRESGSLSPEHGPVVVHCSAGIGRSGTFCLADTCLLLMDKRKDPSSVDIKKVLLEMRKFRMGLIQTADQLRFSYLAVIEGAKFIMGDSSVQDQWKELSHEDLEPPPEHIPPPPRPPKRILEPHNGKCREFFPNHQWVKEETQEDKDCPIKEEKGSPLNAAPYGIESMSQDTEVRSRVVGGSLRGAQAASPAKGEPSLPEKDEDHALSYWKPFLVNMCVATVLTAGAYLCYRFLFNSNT
Description: PTP1B inhibition assay (pNPP substrate). In kind it is biochemical. The conditions noted are these: Hepes buffer pH 7.0, triplicate. How it is done:
Activity of PTPase (Sigma Aldrich, Modderfontein, South Africa) was evaluated using p-nitrophenylphosphate (PNPP) as the substrate. […] The reaction was stopped by the addition of 30 μL of 3 M NaOH and absorbance was determined at wavelength of 410 nm. Control tubes without the enzyme were ran in parallel to nullify the nonenzymatic reaction and for calculating the concentration of p-nitrophenolate ions produced in the reaction mixture.

In data set [6] the target is T5, α-glucosidase (Saccharomyces cerevisiae, UniProt P53341).
T5 construct: purchased Sigma Aldrich (Pty) Ltd
T5 sequence (P53341 whole entry): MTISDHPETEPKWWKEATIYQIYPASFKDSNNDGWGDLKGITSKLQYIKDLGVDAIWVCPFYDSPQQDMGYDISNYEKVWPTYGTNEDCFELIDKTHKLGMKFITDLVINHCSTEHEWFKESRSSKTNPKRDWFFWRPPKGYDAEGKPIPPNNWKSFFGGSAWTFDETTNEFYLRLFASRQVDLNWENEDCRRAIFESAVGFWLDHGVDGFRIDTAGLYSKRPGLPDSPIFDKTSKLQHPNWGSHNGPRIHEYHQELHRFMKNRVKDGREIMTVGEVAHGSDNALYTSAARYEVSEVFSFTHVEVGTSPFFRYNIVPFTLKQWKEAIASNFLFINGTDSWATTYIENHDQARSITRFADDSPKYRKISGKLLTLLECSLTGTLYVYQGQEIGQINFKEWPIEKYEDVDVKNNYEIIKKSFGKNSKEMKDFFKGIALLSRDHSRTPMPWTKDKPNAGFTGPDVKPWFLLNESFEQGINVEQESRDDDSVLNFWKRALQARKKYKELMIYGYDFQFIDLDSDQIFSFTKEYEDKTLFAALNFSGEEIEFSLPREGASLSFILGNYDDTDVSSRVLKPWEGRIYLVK
In words: Kinetic studies towards α-glucosidase inhibition (Lineweaver-Burk and Dixon plots). The format is biochemical. The conditions noted are these: for mode of inhibition of α-glucosidase: Lineweaver-Burk and Dixon plots; for Ki: inhibitor 0.5-20 µM, substrate 0–25 µM, read-out: Ki (Dixon plot), α-glucosidase. How it is done:
The α-glucosidase inhibitory activity of compounds 2a–h was evaluated in triplicates in a 96 well microplate following a protocol by Shi et al.. […] Then 20 µL of 2 mM PNP-G was added and the absorbances were recorded at a wavelength of 405 nm using Varioskan flash microplate spectrophotometer (Thermo Scientific, Waltham, MA, USA). The IC50 values of these compounds were calculated through the nonlinear regression analysis using Origin Pro 9.0 (OriginLab Corporation, Northampton, MA, USA) and are expressed as the mean standard deviation (SD) of three distinct experiments.
The kinetics studies on compounds 2c and 2h were performed according to the reaction conditions in 2.3.1 with inhibitors of various concentrations (0.5, 5, 10, 20 µM) and the ranges of final substrate concentration were 0–25 µM. The type of inhibition was determined by using Lineweave-Burk plot (the inverse of velocity (1/v) against the inverse of the substrate concentration (1/[S]). The inhibitor constant was obtained by Dixon plot (the inverse of velocity (1/v) against concentration of inhibitor at each substrate concentration).

Data set [7] deals with T4, PTP1B. Description: Kinetic studies towards PTP1B inhibition (Lineweaver-Burk and Dixon plots). The format is biochemical. The conditions noted are these: for mode of inhibition of PTP1B: Lineweaver-Burk and Dixon plots; for Ki: inhibitor 0.5-20 µM, substrate 0-25.0 µM, read-out: Ki (Dixon plot), PTP1B. How it is done:
The PTP1B inhibitory activity of compounds 2a–h and sodium orthovanadate was evaluated in triplicates in a 96 well microplate following a protocol by Goldstein et al.. Activity of PTPase (Sigma Aldrich, Modderfontein, South Africa) was evaluated using p-nitrophenylphosphate (PNPP) as the substrate. A 10 μL of PTP1B solution (0.02 U/mL) in 50 mM Hepes buffer (pH 7.0) with different concentrations (0.5, 10, 25, 50, 100 μM) of the test compounds and the reference standard were incubated at 25 °C for 10 min. After pre-incubation, 25 μL of HEPES buffer and 25 μL of 2 mM (pNPP) were added and the mixtures were incubated at 37 °C for 30 min. The reaction was stopped by the addition of 30 μL of 3 M NaOH and absorbance was determined at wavelength of 410 nm. Control tubes without the enzyme were ran in parallel to nullify the nonenzymatic reaction and for calculating the concentration of p-nitrophenolate ions produced in the reaction mixture. A molar extinction coefficient of 1.78 ×10^4 M^-1 cm^-1 was used to calculate the concentration of p-nitrophenolate ions produced in the reaction mixture.
Compounds 2c and 2h were subjected to kinetic analysis following the procedure outlined in 2.3.2 with inhibitors of various concentrations (0.5, 5, 10, 20 µM). The assay was performed with substrate of various concentrations (0, 2.5, 6.25, 12.5, 25.0 µM). The absorbance due to the p-nitrophenol produced by dephosphorylation of PTP1B was measured at 405 nm. The kinetic parameters were determined using Lineweaver-Burk double-reciprocal plots and the Dixon the Dixon plot method at increasing substrate and compound concentrations.

The mark [8] stands for this setting: yeast enzyme, PNP-G substrate, pH 6.8, 37 °C, mean ± SD, triplicate, read-out: IC50 α-Glucosidase.

T2 sequence (P53341 whole entry): as above

One may read the IC50 as the point on the concentration scale where inhibition reaches its midpoint. The compound `O=C1O[C@H]([C@@H](O)CO)C(O)=C1O` [Ascorbic acid, ascorbic acid, reference compound] returned an IC50 in data set [1] of 10.7 ± 0.42 µM.

In the case of `COc1ccc(-c2cc3cc(C(C)=O)c(O)cc3o2)cc1` [Compound 2g, 1-[6-Hydroxy-2-(4-methoxyphenyl)benzofuran-5-yl]ethanone], the IC50 in data set [1] was 16.8 ± 0.38 µM; in data set [2], 2.3 µM and 2.33 µM; in data set [3] (setting [8]) it was 0.56 ± 0.24 µM; in data set [4], 27.3 ± 1.1 µM; in data set [5] it was 31.9 µM.

As for `CC(=O)c1cc2cc(-c3ccccc3)oc2cc1O` [Compound 2a, 1-[6-Hydroxy-2-phenylbenzofuran-5-yl]ethanone], the IC50 in data set [1] was 12.2 ± 2.1 µM; in data set [3] it was above 100 µM; in data set [4], 63.15 ± 0.07 µM; in data set [5], 23 ± 0.23 µM. Besides, in data set [3] (tested 0–100 μM), the “activity against α-glucosidase (in words)” value is given as “No activity”.

Turning to `CC(=O)c1cc2cc(-c3cccc(Cl)c3)oc2cc1O` [Compound 2d, 1-[2-(3-Chlorophenyl)-6-hydroxybenzofuran-5-yl]ethanone], the concentration for half-maximal inhibition (IC50) was 15.5 ± 0.21 µM in data set [1], above 100 µM in data set [3] (setting [8]), above 100 µM in data set [4] and 29.3 µM in data set [5].

As usually defined, the melting point is the temperature of the solid-liquid transition. `CC(=O)c1cc2cc(-c3ccc(C)cc3)oc2cc1O` [Compound 2f, 1-[6-Hydroxy-2-(4-tolyl)benzofuran-5-yl]ethanone] displayed a melting point of 169 to 172 °C. This compound also yielded an IC50 in data set [1] of 26.7 ± 0.62 µM. This compound also returned an IC50 in data set [3] of 14.05 ± 0.07 µM. For the same compound, in data set [4], the “activity against β-secretase (in words)” value is “inactive” and the half-inhibitory concentration (IC50) is above 100 µM. The IC50 in data set [5] turned out to be 26.7 µM.

`CC(=O)c1cc2cc(-c3ccc(Cl)cc3)oc2cc1O` [Compound 2e, 1-[2-(4-Chlorophenyl)-6-hydroxybenzofuran-5-yl]ethanone] yielded a melting point of 170 to 173 °C. This compound also had a half-maximal inhibitory concentration (IC50) in data set [1] of 11.3 ± 1.2 µM. For the same compound, the concentration for half-maximal inhibition (IC50) in data set [3] was 64.9 ± 0.05 µM. For the same compound, the IC50 in data set [4] is above 100 µM. The midpoint of inhibition in data set [5], the IC50, lay at 21.5 µM.

With `CC(=O)c1cc2cc(-c3cccc(F)c3)oc2cc1O` [Compound 2b, 1-[2-(3-Fluorophenyl)-6-hydroxybenzofuran-5-yl]ethanone], the 50% inhibitory concentration (IC50) was 46.5 ± 0.24 µM in data set [1], 4.65 ± 0.13 µM in data set [3] (setting [8]), above 100 µM in data set [4] and 24.5 ± 0.29 µM in data set [5].

Broadly, the Ki is a dissociation constant, usually derived from enzyme kinetics or from competition with a known ligand. `COc1cc(OC)cc(-c2cc3cc(C(C)=O)c(O)cc3o2)c1` [Compound 2h, 1-[6-Hydroxy-2-(3,5-dimethoxyphenyl)benzofuran-5-yl]ethanone] showed a melting point of 155 to 156 °C. Also, the 50% inhibitory concentration (IC50) in data set [1] amounted to 6.28 ± 0.33 µM. In data set [2], this compound had a half-inhibitory concentration (IC50) of 99.6 ± 2.6 µM. Also, in data set [3] (setting [8]), the IC50 was 0.78 ± 0.31 µM. The IC50 in data set [4] turned out to be 25.8 ± 0.08 µM. Moreover, the IC50 in data set [5] stood at 11.9 ± 0.35 µM. In data set [6], the “mode of inhibition of α-glucosidase” value is on record as “mixed mode” and the inhibitory constant (Ki) is 5.11 ± 0.42 µM. For the same compound, the “Vmax, α-glucosidase in presence of inhibitor” value in data set [6] (unchanged with inhibitor concentration) is on record as 0.19. Further, in data set [7], the “mode of inhibition of PTP1B” value is reported as “non-competitive” and the Ki is 0.49 ± 0.01 µM.

Take `CC(=O)c1cc2cc(-c3ccc(F)cc3)oc2cc1O` [Compound 2c, 1-[2-(4-Fluorophenyl)-6-hydroxybenzofuran-5-yl]ethanone]: the IC50 was 9.8 µM and 9.82 µM in data set [1]; 2.8 µM and 2.81 µM in data set [2]; 0.11 ± 0.04 µM in data set [3] (setting [8]); above 100 µM in data set [4]; 17.8 µM in data set [5]. Also, in data set [6], the “mode of inhibition of α-glucosidase” value is on record as “non-competitive”. Also, the inhibitory constant (Ki) came out at 15.09 ± 0.03 µM in data set [6] and 5.2 ± 0.1 µM in data set [7]. Further, the “mode of inhibition of PTP1B” value in data set [7] is given as “mixed-type”.
